Bases are written 5' to 3'; sugars and linkages follow in the same order, as letters with counts (s phosphorothioate, o phosphodiester; PS: all linkages phosphorothioate). The collection does not say whether C is 5-methylated. l = locked nucleic acid (LNA); d = 2'-deoxy (DNA)

This data set addresses Tau. The data set is described as follows: rat primary cortical neurons, FLIPR, 25 uM ASO.
As for “TTTATCCCTCCATGATT (sugars l2 d12 l3, PS)”, the calcium oscillation score was 58.8 % of control.
In the case of “GAAATCCCTCTACTCCA (sugars l3 d12 l2, PS)”, the calcium oscillation score is 73.7 % of control.
For “ACTTGTACACGATCTCCGCC (sugars l3 d14 l3, PS)”, the calcium oscillation score is 103 % of control.
As for TACTAGCCCACCCATC (sugars l3 d10 l3, PS), the figure is ≥ 200 % of control; as for “TAATTCATTTAATTCTCTTC (sugars l4 d12 l4, PS)”, 60.1 % of control.
Consider GCACCATATTACACCA (sugars l3 d11 l2, PS), for which the calcium oscillation score is 95.9 % of control.
As for ATCAGAGGTTTCAGAG (sugars l3 d10 l3, PS), the figure is 0 % of control; as for “CAAAATCCTTAATTTAACCA (sugars l4 d12 l4, PS)”, 60.6 % of control; as for ACTGTTACACATTTATC (sugars l4 d9 l4, PS), 79.8 % of control.
Regarding “TAACTCTCCTTATCTGA (sugars l2 d11 l4, PS)”, the calcium oscillation score was 29.7 % of control.
Turning to “TTATTTCCAAATTCACTTTT (sugars lllldddddddddldlddll, PS)”, the calcium oscillation score is 102 % of control.
Consider “ATTAACCCTTGATCATATTT (sugars l3 d14 l3, PS)”, for which the calcium oscillation score was 40.5 % of control.
Take “ACTTTATTTCCAAATTCACTTTTAC (sugars l1 d1 l2 d18 l3, PS)”: the calcium oscillation score is 23.6 % of control.
Consider “TTTTAATTAAATTTCTCCCT (sugars l4 d13 l3, PS)”, for which the calcium oscillation score was 104 % of control.
For the sequence “CCTCCTAGAACACAACA (sugars l3 d12 l2, PS)”, the calcium oscillation score was 57 % of control.
As for GGAACTATTGATAA (sugars l3 d8 l3, PS), the figure is 0 % of control; as for CTTTTCTTAAAGTTCAC (sugars l4 d9 l4, PS), 82.2 % of control; as for “CCCACATTTGCAAACCA (sugars l2 d13 l2, PS)”, 53.9 % of control.
Next, “CACCCATCAATTTGGAAAGA (sugars l3 d14 l3, PS)”: 91.5 % of control; “TCTAAGTAGACCCTGGCCAC (sugars l3 d14 l3, PS)”: 23.8 % of control.
Consider “CCAGTGCCTGGCACAACAGG (sugars l3 d14 l3, PS)”, for which the calcium oscillation score was 4.03 % of control.
For TATTTACACTGTCCTTT (sugars l4 d9 l4, PS), the calcium oscillation score was 52.1 % of control.
As for “ATTTTACTACTCTCTTTTC (sugars l4 d11 l4, PS)”, the calcium oscillation score is 70.6 % of control.
For the sequence “TTATACAGTTGGCCCTACCA (sugars l3 d14 l3, PS)”, the calcium oscillation score was 40.5 % of control.
Next, “GGAGGCAGACACCTCGTCAG (sugars l3 d14 l3, PS)”: 51.8 % of control.
On to “CAATCCTAAACAATGCC (sugars l2 d11 l4, PS)”, for which the calcium oscillation score was 41.8 % of control.
For the sequence “ACCAACTTTCATCTACTTTT (sugars l3 d15 l2, PS)”, the calcium oscillation score was 90.5 % of control.
On to “TAATAGATCTTTCCCCTC (sugars l2 d13 l3, PS)”, for which the calcium oscillation score is 101 % of control.
As for TCAGATTTAATTCTCAC (sugars l4 d9 l4, PS), the figure is 50.7 % of control.
Take TCTCGCGGAAGGTC (sugars l3 d8 l3, PS): the calcium oscillation score was 75.7 % of control.
Take “CTGTCACTATCACTTCA (sugars l2 d11 l4, PS)”: the calcium oscillation score was 75.3 % of control.
“ACCCTTACACATAGCTTC (sugars l2 d13 l3, PS)”: the calcium oscillation score was 53.9 % of control.
As for “TCTCTCTAGACATCTCA (sugars l2 d12 l3, PS)”, the figure is 68.4 % of control; as for TTGGCGTTCTCGCGGA (sugars l3 d10 l3, PS), 0 % of control; as for “TCAGCTAAGACCCTCAGGTT (sugars l3 d14 l3, PS)”, 33 % of control.
As for “AAACATCTAAACACCTCAAT (sugars l4 d12 l4, PS)”, the figure is 78.9 % of control; as for “CCCATCTTAATTCATTTAAT (sugars l2 d14 l4, PS)”, 90.1 % of control.
For “GACTTGTACACGATCTCCGC (sugars l3 d14 l3, PS)”, the calcium oscillation score is 66.8 % of control.
As for AGCTTTGAGTTGAGGG (sugars l3 d10 l3, PS), the figure is 0 % of control; as for “CTTGGCTTTTTTGTCATCGC (sugars l3 d14 l3, PS)”, 23.3 % of control.
Turning to TTGATACCCTTCCTCA (sugars l3 d10 l3, PS), the calcium oscillation score was 14.3 % of control.
Regarding “TTTTCTCTCTTAACTTTATT (sugars l4 d12 l4, PS)”, the calcium oscillation score is 89 % of control.
Consider TGGACCACCTTACCAC (sugars l3 d10 l3, PS), for which the calcium oscillation score was 48.1 % of control.
As for “TTATTTCCAAATTCACTTTT (sugars lllldddddddddlddldll, PS)”, the figure is 96.5 % of control; as for CATTCTATACTTCAGA (sugars l3 d9 l4, PS), 79 % of control.
On to AATAACATTAACCCTT (sugars l4 d8 l4, PS), for which the calcium oscillation score was 72 % of control.
In the case of ATTTTACTACTCTCTTT (sugars l4 d9 l4, PS), the calcium oscillation score was 82 % of control.
As for “CTTACCATCCTATCTTC (sugars l3 d11 l3, PS)”, the figure is 87 % of control; as for “AGCCCATTTACAATTCA (sugars l2 d11 l4, PS)”, 76.7 % of control.
Consider CGCCCCACTTTTAATT (sugars l3 d11 l2, PS), for which the calcium oscillation score was 58.3 % of control.
Next, “TACCTTTTTATTTCCTC (sugars l4 d11 l2, PS)”: 41.6 % of control; “TTATTTATTCTTTTTATTA (sugars l4 d11 l4, PS)”: 45.2 % of control; “CTACTTTATTCCCTTAAC (sugars l4 d11 l3, PS)”: 91.3 % of control.
Next, “CAAACCACTCTTATTCTTTA (sugars l4 d13 l3, PS)”: 68.5 % of control; GTCAATTTAAATGGA (sugars l3 d9 l3, PS): 66.7 % of control.
As for “TATCATTTTCTTTTTCAAAA (sugars l4 d12 l4, PS)”, the figure is 37.3 % of control; as for TTTTCTCAATGTAACCT (sugars l4 d9 l4, PS), 80.5 % of control.
For “ACCATCCAAGTCAATGCCTG (sugars l3 d14 l3, PS)”, the calcium oscillation score is 4.03 % of control.
Next, GGCGACTTGTACACGA (sugars l3 d10 l3, PS): 69.4 % of control; “CAACATTTGCACTCTCT (sugars l2 d11 l4, PS)”: 53 % of control.
As for “TATTTCCAAATTCACTTTTA (sugars l4 d10 l1 d2 l3, PS)”, the figure is 127 % of control.
Take “GCACCCACTTTCCTAATT (sugars l2 d14 l2, PS)”: the calcium oscillation score was 51.6 % of control.
Consider “TATTTCCAAATTCACTTTTA (sugars llldldddddddddldldll, PS)”, for which the calcium oscillation score is 108 % of control.
Next, “TCTAATTTAGTCACCAT (sugars l4 d10 l3, PS)”: 96 % of control; “CAAAACATTCTCACCAAACC (sugars l4 d14 l2, PS)”: 84.8 % of control; “CTTTATTTCCAAATTCACT (sugars l3 d11 l1 d2 l2, PS)”: 140 % of control.
With “TCAGCTTGTGGGTTTCAATC (sugars l3 d14 l3, PS)”, the calcium oscillation score was 13.3 % of control.
As for CTTCCAAGACTTCTCC (sugars l4 d10 l2, PS), the figure is 77.2 % of control; as for “CAGGTCTGGCATGGGCACGG (sugars l3 d14 l3, PS)”, 0 % of control.
As for GTCTGGCATGGGCAC (sugars l3 d9 l3, PS), the figure is 62.9 % of control.
As for TTTCAACTCTTAGCATC (sugars l4 d9 l4, PS), the figure is 70.8 % of control; as for TTAGCATCAGAGGTTT (sugars l3 d10 l3, PS), 23.3 % of control; as for CCTGATCACAAACCCT (sugars l3 d10 l3, PS), 100 % of control.
On to “TTTATTTCCAAATTCACTTT (sugars l1 d17 l2, PS)”, for which the calcium oscillation score was 163 % of control.
As for “GACACCTCGTCAGCTAGCGT (sugars l3 d14 l3, PS)”, the figure is 11.7 % of control; as for “TTACACCATCCAAGTCA (sugars l4 d11 l2, PS)”, 75.5 % of control.
As for AGTCAAGCATCACGTT (sugars l3 d10 l3, PS), the figure is 42.2 % of control.
Next, CAGAATATTACACCAT (sugars l4 d8 l4, PS): 102 % of control; TTACACCCAAACCTAAA (sugars l4 d9 l4, PS): 92.3 % of control; GAGTCTACCATGTCGA (sugars l3 d10 l3, PS): 65.2 % of control.
Turning to “ACAAACCAACTCAACATTAC (sugars l4 d12 l4, PS)”, the calcium oscillation score is 84.6 % of control.
Next, “CCAGCTAGTGGTGCCACCTG (sugars l3 d14 l3, PS)”: 1.84 % of control; “CGAAACCAAGGTCCCACCAG (sugars l3 d14 l3, PS)”: 40.4 % of control; TCAGGTCAACTGGTTT (sugars l3 d10 l3, PS): 95.9 % of control.
As for “CCTTTTCTACTCTACTCTC (sugars l3 d14 l2, PS)”, the figure is 55.7 % of control.
Next, “AGCTTCCACATTTTACA (sugars l3 d12 l2, PS)”: 63.8 % of control.
“AATTTACACCCAAACCTA (sugars l2 d12 l4, PS)”: the calcium oscillation score was 81.9 % of control.
Next, “CCCACATTTGCAAACCAC (sugars l2 d14 l2, PS)”: 50.5 % of control; CCCGTGGTCTGTCTTG (sugars l3 d10 l3, PS): 0 % of control; TACAGTCATTTCATTAC (sugars l4 d9 l4, PS): 64.9 % of control.
As to TGGATATAGTTAAGGC (sugars l2 d11 l3, PS), the calcium oscillation score is 95.2 % of control.
As for “GGAGTGCTCTTAGCATCAGA (sugars l3 d14 l3, PS)”, the figure is 14.8 % of control; as for “TTATTTCCAAATTCACTTTT (sugars l1 d17 l2, PS)”, 166 % of control; as for “TTTTTATTCATAACTTTTCA (sugars l4 d12 l4, PS)”, 56.4 % of control.
As for “AGTTCCCACAATTCCTAC (sugars l2 d13 l3, PS)”, the figure is 50.4 % of control.

Values taken from the OligoGym collection.
